Test [1] has as its target T1, human dopamine D2L receptor (Homo sapiens, UniProt P14416). The test is described as follows: biochemical.
Experimental: (§2) Receptor binding studies were carried out as described previously[43][44].
(§3) The resulting competition curves of the receptor binding experiments were analysed by nonlinear regression using the algorithms in PRISM 6.0 (GraphPad Software, San Diego, CA). […] IC50 values were transformed to Ki values according to the equation of Cheng and Prusoff[48].
Test [2] deals with T1, human dopamine D2L receptor. In words: Radioligand binding assay with [3H]spiperone, membranes of CHO cells stably expressing the receptor. As to conditions: for binding affinity (in words): D2R radioligand binding.
Experimental: as §2, §3
The target of test [3] is T2, dopamine receptor subtype D2S (Homo sapiens, UniProt P14416). In words: β-Arrestin-2 recruitment assay (PathHunter), agonist and antagonist mode. The class given is cell-based. On the set-up: expressed in transfected cells. Conditions: for Emax: D2S-mediated recruitment of β-arrestin-2, PathHunter assay, relative to the maximum effect of quinpirole; for β-arrestin recruitment (in words): agonist mode. On the procedure: The measurement of β-arrestin-2 recruitment stimulated by D2R activation was performed using the PathHunter® assay purchased from DiscoveRx (Birmingham, U.K.) according to the manufacturer’s protocol as described previously.
T2 sequence (P14416 1-414 isoform P14416-2): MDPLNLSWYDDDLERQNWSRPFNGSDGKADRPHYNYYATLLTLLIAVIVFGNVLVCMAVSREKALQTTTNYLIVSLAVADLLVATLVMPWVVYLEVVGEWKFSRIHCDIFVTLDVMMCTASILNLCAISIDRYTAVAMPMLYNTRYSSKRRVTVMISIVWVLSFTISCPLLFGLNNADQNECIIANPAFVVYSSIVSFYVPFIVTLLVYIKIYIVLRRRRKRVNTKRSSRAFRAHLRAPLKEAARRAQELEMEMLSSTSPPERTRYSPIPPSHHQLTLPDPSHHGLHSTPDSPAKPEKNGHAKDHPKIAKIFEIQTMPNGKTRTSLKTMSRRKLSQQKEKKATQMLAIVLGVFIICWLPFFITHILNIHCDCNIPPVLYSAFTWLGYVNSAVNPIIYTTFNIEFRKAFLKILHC
The amount of recruitment of β-arrestin was derived from the agonist-induced increase of chemiluminescence, which was expressed in counts per second (cps). Dose-response curves were normalised to basal cps stimulated by buffer (=0%) and the effect of the maximum effect of the reference compound quinpirole (=100%).
(§1) From each curve, a set of mean values was derived and pooled to result in an average curve showing the EC50 and Emax value, respectively.
A general note: Activated receptors often draw arrestin, which recruitment assays turn into a signal.

In test [4] the target is T2, dopamine receptor subtype D2S. In words: cAMP inhibition assay: inhibition of forskolin-stimulated cAMP accumulation (CAMYEL BRET sensor). The class given is cell-based. Further details: expressed in transfected cells; host or cells: HEK293T cells, transient co-transfection with the CAMYEL sensor. As to conditions: for Emax / Inhibition of forskolin-stimulated cAMP accumulation Emax (%): maximum effect relative to the effect of quinpirole. On the procedure: HEK293T cells were transiently co-transfected with pcDNA3L-His-CAMYEL[45] (purchased from ATCC, Manassas, VA via LGC Standards, Wesel, Germany) and D2s receptor, respectively, and the assay was performed according to literature. Twenty-four hours after transfection cells were split into white half-area 96-well plates at 2 × 10^5 cells/well and grown overnight in a phenol-red free medium supplemented with serum (Invitrogen, Darmstadt, Germany). On the day of measurement, the medium was removed and replaced by phosphate buffered saline (PBS). The cells were serum-starved for 1 h before treatment. The assay was started by adding 10 μL of coelenterazine-h (Promega, Mannheim, Germany) to each well to yield a final concentration of 5 μM. After 5 min of incubation, test compounds were added in PBS containing forskolin at a final concentration of 10 μM. After an incubation time of 15 min, BRET measurement was performed with a CLARIOstar plate reader (BMG LabTech, Ortenberg, Germany). […] Curves were normalised to basal BRET ratio obtained from dPBS (0%) and the maximum effect of the reference ligand quinpirole (100%).
Data from cAMP measurements were analysed by normalising the BRET ratios with 0% for the unstimulated receptor and 100% for the full effect of the reference ligand quinpirole. Dose-response curves were calculated by nonlinear regression using the algorithms of PRISM 6.0.
as §1
(cAMP levels reflect the balance of adenylyl cyclase and phosphodiesterase activity.)

“Also recorded” adds a separate entry of the source. Some results are limits rather than exact numbers.

T1 sequence (P14416 whole entry): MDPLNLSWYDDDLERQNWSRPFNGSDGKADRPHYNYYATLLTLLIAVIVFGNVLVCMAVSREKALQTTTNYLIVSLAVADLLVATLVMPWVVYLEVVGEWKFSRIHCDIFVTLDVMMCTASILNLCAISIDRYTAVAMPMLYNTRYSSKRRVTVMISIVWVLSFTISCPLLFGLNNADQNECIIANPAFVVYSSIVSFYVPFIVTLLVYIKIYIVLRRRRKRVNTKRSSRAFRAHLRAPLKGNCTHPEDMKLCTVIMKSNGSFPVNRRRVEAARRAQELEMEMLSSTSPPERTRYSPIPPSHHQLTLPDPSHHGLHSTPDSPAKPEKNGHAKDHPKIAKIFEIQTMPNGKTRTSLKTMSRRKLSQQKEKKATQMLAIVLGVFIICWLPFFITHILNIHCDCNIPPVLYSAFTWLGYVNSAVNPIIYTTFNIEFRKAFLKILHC

For `COC(=O)C1=CO[C@@H](C)[C@H]2CN3CCc4c([nH]c5ccccc45)[C@@H]3C[C@H]12` [Ajmalicine], the Ki (in general, a dissociation constant, usually derived from enzyme kinetics or from competition with a known ligand) in test [1] was above 100 µM.

`CC(C)(C)NCC(O)c1cc(Cl)c(N)c(Cl)c1` (stereo not shown) [Clenbuterol, reference compound] yielded a Ki in test [2] of 50 µM.

For the molecule `Oc1cc(O)c2cc(O)c(-c3cc(O)c(O)c(O)c3)[o+]c2c1` [Delphinidin], in test [1], the Ki stood at 26 µM. Besides, in test [3], the Emax (in general, the size of the effect at its maximum, as opposed to the concentration needed) is below 7%.

Take `COc1ccc2c(c1OC)CN1CCc3cc4c(cc3C1=C2)OCO4` [Dihydroberberine]: in test [1], the Ki came out at 75 µM.

Regarding `CC[C@H]1CN2CCc3cc(OC)c(OC)cc3[C@@H]2C[C@@H]1C[C@H]1NCCc2cc(OC)c(OC)cc21` [Emetine, reference compound], the affinity in test [2] corresponds to a Ki of 37 µM.

`CC(Cc1ccc(C(C)(C)C)cc1)CN1C[C@@H](C)O[C@@H](C)C1` (stereo partly shown) [Fenpropimorph] registered a Ki in test [2] above 100 µM.

In the case of `CC(=O)OC1C(C)CN(C)C2Cc3c[nH]c4cccc(c34)C12` (stereo not shown) [Fumigaclavine A], the Ki in test [2] is 1.1 µM. In test [2] (D2L radioligand binding), the “Ki value relative to the endogenous ligand dopamine” value is “seven times higher”. In test [3], the Emax was below 7% and the “β-arrestin recruitment (in words)” value is listed as “did not show β-arrestin recruitment”. In test [4], the EC50 (commonly the concentration giving half of the maximal effect) was found to be 0.25 µM. Further, in test [4] (D2S expressed in HEK cells), the “agonist activity in the cAMP accumulation assay / Gi/o activation (in words)” value is reported as “weak partial agonists”. The “agonist activity in the cAMP accumulation assay / Gi/o activation (in words)” value in test [4] (D2S expressed in HEK cells, listed as fumigaclavine A) is recorded as “partial agonism in Gi/o activation”.

In test [2], `O=C(CC1NCCCC1O)Cn1cnc2cc(Br)c(Cl)cc2c1=O` (stereo not shown) [Halofuginone, reference compound] had a Ki above 50 µM.

On to `CN(C)CCc1ccc(O)cc1` [Hordenine], for which, in test [2], the affinity, expressed as Ki, was 13 µM and the “binding affinity (in words)” value is given as “low micromolar range”. Also, in test [3], the Emax was below 7% and the “β-arrestin recruitment (in words)” value is “did not show significant β-arrestin recruitment; also recorded: no β-arrestin-2 recruitment was determined”. In addition, in test [3] (antagonist mode: 30 min pre-incubation, then 300 nM quinpirole), the “antagonism of quinpirole-stimulated β-arrestin-2 recruitment (in words)” value was “antagonised D2-mediated β-arrestin recruitment; also recorded: antagonistic activity; also recorded: completely antagonised quinpirole-stimulated recruitment; also recorded: antagonism in β-arrestin recruitment”. In test [4], the EC50 is 3.7 µM. The “agonist activity in the cAMP accumulation assay / Gi/o activation (in words)” value in test [4] (D2S expressed in HEK cells) is “shows agonist properties; also recorded: almost full D2R-agonist in Gi/o activation”. For the same molecule, in test [4] (HEK293, read-out: Inhibition of forskolin-stimulated cAMP accumulation Emax (%), D2S expressed in HEK cells), the maximal response (Emax) amounted to 76%.

The molecule `O=C(CCc1ccc(O)c(O)c1)NCCCNCCCCNCCCNC(=O)CCc1ccc(O)c(O)c1` [Kukoamine A] displayed a Ki in test [1] above 100 µM.

For the molecule `COc1cc(C(=O)OCCCCNC(=N)N)cc(OC)c1O` [Leonurine], the Ki in test [1] is above 100 µM.

In turn, `NCc1cc(=O)[nH]o1` [Muscimol] had a Ki in test [2] above 100 µM.

In the case of `N[C@@H](CCCCn1c(C=O)ccc1CO)C(=O)O` [Pyrraline], the Ki in test [1] was above 100 µM.

With `N=C(N/N=C/c1ccc(Cl)cc1)N/N=C/c1ccc(Cl)cc1` [Robenidine, reference compound], in test [2], the “binding affinity (in words)” value is reported as “low micromolar range”. This molecule showed a Ki in test [1] of 5.4 µM. Moreover, in test [3], the Emax was below 7% and the “β-arrestin recruitment (in words)” value is “could not observe any activation; also recorded: did not show any activation”. Further, the “agonist activity in the cAMP accumulation assay / Gi/o activation (in words)” value in test [4] (D2S expressed in HEK cells) is on record as “could not observe any activation; also recorded: did not show any activation”. Also, in test [4] (HEK293, D2S expressed in HEK cells, read-out: Inhibition of forskolin-stimulated cAMP accumulation Emax (%)), the Emax is below 5%.

Take `C=CC(C)(C)[C@@]12C[C@H]3C(=O)N/C(=C/c4c[nH]cn4)C(=O)N3[C@@H]1Nc1ccccc12` [Roquefortine C]: the Ki in test [1] was above 100 µM.

On to `CC1NCCc2cc(O)c(O)cc21` (stereo not shown) [Salsolinol], for which, in test [3], the Emax is below 7% and the “β-arrestin recruitment (in words)” value is recorded as “did not show β-arrestin recruitment”. In test [4] (D2S expressed in HEK cells), the “agonist activity in the cAMP accumulation assay / Gi/o activation (in words)” value was “weak partial agonists; also recorded: partial agonism in Gi/o activation” and the “Inhibition of forskolin-stimulated cAMP accumulation Emax (%)” value came out at 21%. Moreover, the “Inhibition of forskolin-stimulated cAMP accumulation Emax (%)” value in test [4] (D2S expressed in HEK cells, listed as salsolinol) was “below 50%”.

The molecule `O=C(O)c1cn(-c2ccc(F)cc2)c2cc(N3CCNCC3)c(F)cc2c1=O` [Sarafloxacin, reference compound] gave a Ki in test [1] above 100 µM.

These data come from paper PMC5345022 (Scientific Reports, 2017).
